Reference: ChEMBL document CHEMBL5131481, “Topoisomerase IIα inhibitory and antiproliferative activity of dihydroxylated 2,6-diphenyl-4-fluorophenylpyridines: Design, synthesis, and structure-activity relationships” (Bioorg Med Chem Lett, 2022)
Structures can show the parent of a compound that is named as a salt.

Key:
[1] = target: DNA topoisomerase 2-alpha (Homo sapiens) (UniProt P11388); experiment: Inhibition of topoisomerase 2alpha (unknown origin) assessed as relaxation of supercoiled plasmid pBR322 DNA at 100 uM relative to control
Sequence of DNA topoisomerase 2-alpha (Homo sapiens) (P11388 whole entry): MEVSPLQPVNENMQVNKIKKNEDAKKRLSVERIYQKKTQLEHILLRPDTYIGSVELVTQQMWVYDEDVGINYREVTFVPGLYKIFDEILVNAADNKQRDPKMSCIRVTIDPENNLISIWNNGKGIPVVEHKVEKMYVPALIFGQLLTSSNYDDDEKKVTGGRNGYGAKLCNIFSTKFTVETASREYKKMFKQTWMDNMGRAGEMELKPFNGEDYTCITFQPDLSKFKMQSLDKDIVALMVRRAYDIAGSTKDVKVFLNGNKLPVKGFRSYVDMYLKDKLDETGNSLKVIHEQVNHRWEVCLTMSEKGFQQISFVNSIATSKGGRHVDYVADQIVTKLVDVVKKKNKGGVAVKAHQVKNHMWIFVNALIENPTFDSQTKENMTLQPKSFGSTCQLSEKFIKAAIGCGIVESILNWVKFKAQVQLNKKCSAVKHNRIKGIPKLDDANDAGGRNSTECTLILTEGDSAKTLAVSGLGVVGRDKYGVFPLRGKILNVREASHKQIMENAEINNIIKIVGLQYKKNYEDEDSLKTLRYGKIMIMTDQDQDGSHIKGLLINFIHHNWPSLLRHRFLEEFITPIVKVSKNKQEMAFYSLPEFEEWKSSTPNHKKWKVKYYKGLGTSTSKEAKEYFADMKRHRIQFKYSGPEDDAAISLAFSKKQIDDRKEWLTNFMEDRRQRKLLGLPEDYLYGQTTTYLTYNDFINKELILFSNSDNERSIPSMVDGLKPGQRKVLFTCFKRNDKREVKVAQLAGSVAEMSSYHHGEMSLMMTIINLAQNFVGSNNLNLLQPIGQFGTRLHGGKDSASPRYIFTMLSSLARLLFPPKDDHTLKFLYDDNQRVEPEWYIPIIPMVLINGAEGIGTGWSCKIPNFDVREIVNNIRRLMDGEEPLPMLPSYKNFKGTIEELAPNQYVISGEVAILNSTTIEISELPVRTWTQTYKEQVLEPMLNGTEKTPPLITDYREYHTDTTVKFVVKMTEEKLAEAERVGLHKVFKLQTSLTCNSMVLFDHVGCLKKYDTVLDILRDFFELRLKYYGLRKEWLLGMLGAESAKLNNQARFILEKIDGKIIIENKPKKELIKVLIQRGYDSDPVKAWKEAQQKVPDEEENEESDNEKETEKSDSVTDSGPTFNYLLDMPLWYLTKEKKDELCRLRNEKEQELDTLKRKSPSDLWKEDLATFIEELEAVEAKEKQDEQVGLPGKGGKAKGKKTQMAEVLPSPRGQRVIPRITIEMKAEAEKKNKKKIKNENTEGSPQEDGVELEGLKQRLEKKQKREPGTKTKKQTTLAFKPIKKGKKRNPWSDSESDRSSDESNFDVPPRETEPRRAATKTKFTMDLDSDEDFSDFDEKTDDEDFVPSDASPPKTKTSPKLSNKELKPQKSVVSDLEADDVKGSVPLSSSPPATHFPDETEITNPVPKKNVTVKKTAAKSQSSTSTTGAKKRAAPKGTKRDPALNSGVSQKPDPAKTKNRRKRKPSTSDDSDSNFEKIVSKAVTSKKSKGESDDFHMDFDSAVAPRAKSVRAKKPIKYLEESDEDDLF

[2] = tested on: HCT-15; experiment: Antiproliferative activity against human HCT-15 cells assessed as inhibition of cell proliferation; format: functional, cell-based
[3] = tested on: T47D; experiment: Antiproliferative activity against human T47D cells assessed as inhibition of cell proliferation; format: functional, cell-based
[4] = tested on: HeLa; experiment: Antiproliferative activity against human HeLa cells assessed as inhibition of cell proliferation; format: functional, cell-based
[5] = tested on: DU-145; experiment: Antiproliferative activity against human DU-145 cells assessed as inhibition of cell proliferation; format: functional, cell-based
[6] = target: DNA topoisomerase 2-alpha (Homo sapiens) (UniProt P11388); experiment: Inhibition of topoisomerase 2alpha (unknown origin) assessed as relaxation of supercoiled plasmid pBR322 DNA at 20 uM relative to control

Row | Structure (SMILES) | inhibition [1] [%] | IC50 [2] [µM] | IC50 [3] [µM] | IC50 [4] [µM] | IC50 [5] [µM] | inhibition [6] [%]
1 | Oc1ccc(-c2cc(-c3ccccc3OC(F)(F)F)cc(-c3cccc(O)c3)n2)cc1 | 45.2 | 2.31 | 7.3 | 5.8 | 7.76 | 4.4
2 | Oc1ccccc1-c1cc(-c2cccc(C(F)(F)F)c2)cc(-c2ccccc2O)n1 | 1.2 | > 50 | > 50 | > 50 | > 50 | –
3 | Oc1ccccc1-c1cc(-c2ccc(F)cc2)cc(-c2ccccc2O)n1 | 7.2 | > 50 | > 50 | > 50 | > 50 | –
4 | Oc1ccc(-c2cc(-c3cccc(C(F)(F)F)c3)cc(-c3ccccc3O)n2)cc1 | 0.1 | > 50 | > 50 | > 50 | > 50 | –
5 | Oc1ccc(-c2cc(-c3ccc(C(F)(F)F)cc3)cc(-c3ccc(O)cc3)n2)cc1 | 0.2 | > 50 | > 50 | > 50 | > 50 | –
6 | Oc1ccccc1-c1cc(-c2cccc(F)c2)cc(-c2ccccc2O)n1 | 0 | > 50 | > 50 | > 50 | > 50 | –
7 | Oc1ccc(-c2cc(-c3cccc(OC(F)(F)F)c3)cc(-c3ccc(O)cc3)n2)cc1 | 4.4 | > 50 | > 50 | > 50 | > 50 | –
8 | Oc1cccc(-c2cc(-c3cccc(F)c3)cc(-c3ccccc3O)n2)c1 | 8.8 | > 50 | > 50 | > 50 | > 50 | –
9 | Oc1ccc(-c2cc(-c3cccc(F)c3)cc(-c3ccccc3O)n2)cc1 | 16.3 | > 50 | > 50 | > 50 | > 50 | –
10 | Oc1ccccc1-c1cc(-c2ccc(OC(F)(F)F)cc2)cc(-c2ccccc2O)n1 | 0 | > 50 | > 50 | > 50 | 20.3 | –
11 | Oc1ccc(-c2cc(-c3cccc(C(F)(F)F)c3)cc(-c3ccc(O)cc3)n2)cc1 | 0 | > 50 | > 50 | > 50 | > 50 | –
12 | Oc1ccccc1-c1cc(-c2ccc(C(F)(F)F)cc2)cc(-c2ccccc2O)n1 | 0 | > 50 | > 50 | > 50 | > 50 | –
13 | Oc1cccc(-c2cc(-c3ccc(F)cc3)cc(-c3ccccc3O)n2)c1 | 1.3 | > 50 | > 50 | > 50 | > 50 | –
14 | Oc1ccc(-c2cc(-c3ccccc3F)cc(-c3ccc(O)cc3)n2)cc1 | 0 | 8.18 | 15.1 | > 50 | 7.78 | –
15 | Oc1ccc(-c2cc(-c3ccc(OC(F)(F)F)cc3)cc(-c3ccccc3O)n2)cc1 | 0 | > 50 | > 50 | > 50 | > 50 | –
16 | Oc1cccc(-c2cc(-c3ccc(OC(F)(F)F)cc3)cc(-c3cccc(O)c3)n2)c1 | 6 | > 50 | 9.82 | 18.7 | > 50 | –

Row | Structure (SMILES) | inhibition [1] [%] | IC50 [2] [µM] | IC50 [3] [µM] | IC50 [4] [µM] | IC50 [5] [µM] | inhibition [6] [%]
17 | Oc1ccccc1-c1cc(-c2ccccc2C(F)(F)F)cc(-c2ccccc2O)n1 | 0 | 3.97 | 22.5 | 5.8 | 4.77 | –
18 | Oc1cccc(-c2cc(-c3ccc(C(F)(F)F)cc3)cc(-c3ccccc3O)n2)c1 | 0.2 | > 50 | > 50 | > 50 | > 50 | –
19 | Oc1ccc(-c2cc(-c3ccc(C(F)(F)F)cc3)cc(-c3ccccc3O)n2)cc1 | 0.1 | > 50 | > 50 | > 50 | > 50 | –
20 | Oc1ccc(-c2cc(-c3ccccc3C(F)(F)F)cc(-c3ccccc3O)n2)cc1 | 0 | 8.99 | 7.18 | 16.5 | 6.69 | –
21 | Oc1ccc(-c2cc(-c3ccc(F)cc3)cc(-c3ccccc3O)n2)cc1 | 0 | > 50 | > 50 | > 50 | > 50 | –
22 | Oc1cccc(-c2cc(-c3ccc(OC(F)(F)F)cc3)cc(-c3ccccc3O)n2)c1 | 0 | 9.41 | 7.71 | 20.6 | 21.1 | –
23 | Oc1ccc(-c2cc(-c3ccccc3C(F)(F)F)cc(-c3ccc(O)cc3)n2)cc1 | 0 | > 50 | > 50 | > 50 | > 50 | –
24 | Oc1cccc(-c2cc(-c3ccccc3F)cc(-c3ccccc3O)n2)c1 | 1 | 8.47 | 24.2 | 31.1 | 35.6 | –
25 | Oc1ccccc1-c1cc(-c2ccccc2F)cc(-c2ccccc2O)n1 | 10.3 | > 50 | > 50 | > 50 | > 50 | –
26 | Oc1ccc(-c2cc(-c3cccc(F)c3)cc(-c3ccc(O)cc3)n2)cc1 | 0 | > 50 | > 50 | > 50 | 9.29 | –
27 | Oc1ccc(-c2cc(-c3ccccc3F)cc(-c3ccccc3O)n2)cc1 | 0.2 | > 50 | > 50 | > 50 | > 50 | –
28 | Oc1ccc(-c2cc(-c3ccc(OC(F)(F)F)cc3)cc(-c3cccc(O)c3)n2)cc1 | 4.4 | 1.38 | 18.9 | 27.8 | 18.1 | –
29 | Oc1ccc(-c2cc(-c3cccc(OC(F)(F)F)c3)cc(-c3ccccc3O)n2)cc1 | 0 | > 50 | > 50 | > 50 | > 50 | –
30 | Oc1ccccc1-c1cc(-c2cccc(OC(F)(F)F)c2)cc(-c2ccccc2O)n1 | 14.8 | > 50 | > 50 | > 50 | 7.47 | –
31 | Oc1cccc(-c2cc(-c3cccc(F)c3)cc(-c3cccc(O)c3)n2)c1 | 4.9 | 7.86 | 21.3 | 1.4 | 23.8 | –

Stronger by IC50 [3], values ahead:

Row | inhibition [1] [%] | IC50 [2] [µM] | IC50 [3] [µM] | IC50 [4] [µM] | IC50 [5] [µM] | inhibition [6] [%] | Structure (SMILES)
32 | 5.7 | > 50 | 6.74 | > 50 | > 50 | – | Oc1cccc(-c2cc(-c3cccc(OC(F)(F)F)c3)cc(-c3cccc(O)c3)n2)c1
33 | 0.6 | 6.46 | 6.34 | 19.5 | 13 | – | Oc1cccc(-c2cc(-c3cccc(C(F)(F)F)c3)cc(-c3ccccc3O)n2)c1
34 | – | – | 5.82 | 7.01 | 7.47 | 21.2 | COc1cc([C@@H]2c3cc4c(cc3[C@@H](O[C@@H]3O[C@@H]5CO[C@@H](C)O[C@H]5[C@H](O)[C@H]3O)[C@H]3COC(=O)[C@H]23)OCO4)cc(OC)c1O [ETOPOSIDE]
35 | 2.6 | 9.01 | 5.68 | 16.8 | 7.25 | – | Oc1cccc(-c2cc(-c3ccccc3C(F)(F)F)cc(-c3ccccc3O)n2)c1
36 | 0 | 2.74 | 5.39 | 14.9 | > 50 | – | Oc1cccc(-c2cc(-c3cccc(OC(F)(F)F)c3)cc(-c3ccccc3O)n2)c1
37 | 97.1 | 4.97 | 5.26 | 8.68 | 6.03 | 42.5 | Oc1ccc(-c2cc(-c3ccc(F)cc3)cc(-c3ccc(O)cc3)n2)cc1
38 | 59 | 13.9 | 5.15 | 16.9 | 5.39 | 6.4 | Oc1ccc(-c2cc(-c3ccc(OC(F)(F)F)cc3)cc(-c3ccc(O)cc3)n2)cc1
39 | 43.7 | 5.02 | 5 | 8.08 | 15.2 | 30.4 | Oc1ccc(-c2cc(-c3ccc(F)cc3)cc(-c3cccc(O)c3)n2)cc1
40 | 25.2 | 13.6 | 4.97 | 12.7 | > 50 | – | Oc1cccc(-c2cc(-c3cccc(C(F)(F)F)c3)cc(-c3cccc(O)c3)n2)c1
41 | – | 1.28 | 4.59 | 5.04 | 5.85 | – | COc1cccc2c1C(=O)c1c(O)c3c(c(O)c1C2=O)C[C@@](O)(C(=O)CO)C[C@@H]3O[C@H]1C[C@H](N)[C@H](O)[C@H](C)O1 [DOXORUBICIN HYDROCHLORIDE]
42 | 34 | 8.15 | 4.35 | 15.2 | 2.87 | – | Oc1cccc(-c2cc(-c3ccccc3C(F)(F)F)cc(-c3cccc(O)c3)n2)c1
43 | 0 | 3.24 | 2.68 | 15.2 | > 50 | – | Oc1cccc(-c2cc(-c3ccccc3OC(F)(F)F)cc(-c3ccccc3O)n2)c1
44 | 28 | 9.54 | 2.63 | 16.2 | 11.1 | – | Oc1ccc(-c2cc(-c3cccc(C(F)(F)F)c3)cc(-c3cccc(O)c3)n2)cc1
45 | 24 | > 50 | 2.33 | > 50 | 33.5 | – | Oc1cccc(-c2cc(-c3ccc(C(F)(F)F)cc3)cc(-c3cccc(O)c3)n2)c1
46 | 0 | 9.82 | 2.05 | 6.01 | 4.19 | – | Oc1ccc(-c2cc(-c3ccccc3OC(F)(F)F)cc(-c3ccccc3O)n2)cc1
47 | 12.5 | 4.52 | 1.73 | 9.75 | 5.85 | – | Oc1ccccc1-c1cc(-c2ccccc2OC(F)(F)F)cc(-c2ccccc2O)n1
